From publication PMC3901262 (Investigational new drugs, 2013)

Tests used:
[1] = Plasma pharmacokinetics of vorinostat and metabolites; format: in vivo, human; conditions: for Cmax / Tmax / AUC (0-infinity) / T1/2 / AUC / Cl/F: plasma; for AUC: Mean AUC
[2] = tested on: patients with advanced solid tumors; experiment: Phase I dose escalation: toxicity, DLT and MTD; format: in vivo, human
refractory NSCLC = conditions: single agent; ref [36]; cited from earlier work
[3] = C1D1, vorinostat 400 mg oral alone (single dose)
[4] = C1D2, vorinostat 400 mg oral + bortezomib
[5] = C1D12, vorinostat 400 mg oral steady state, with bortezomib

Which results are given for `O=C(O)CCC(=O)Nc1ccccc1` [Vorinostat acid, 4-anilino-4-oxobutanoic acid]?
mean baseline plasma concentration ([1]; Day 2, before vorinostat dose): 130 ± 68 ng/mL; Cmax [1, 3]: 815 ± 282 ng/mL; Tmax [1, 3]: 2.8 ± 1.4 h

For `O=C(CCCCCCC(=O)Nc1ccccc1)NO[C@@H]1O[C@H](C(=O)O)[C@@H](O)[C@H](O)[C@H]1O` [Vorinostat glucuronide, vorinostat glucuronide], which “AUC (0-infinity)” value [1, 3] is on record?
The value was 4843 ± 3034 ng·h/mL.

And the Cmax [1, 3]?
Its Cmax is 1153 ± 922 ng/mL.

What about the T1/2 [1, 3] of the same molecule?
The T1/2 was 1.9 ± 1.4 h.

What about the Tmax [1, 3] of the same molecule?
Its Tmax is 1.9 ± 1.0 h.

And the “AUC (0-infinity)” value [1, 4]?
The value was 5283 ± 2915 ng·h/mL.

And the Cmax [1, 4]?
Its Cmax is 1225 ± 496 ng/mL.

And the T1/2 [1, 4]?
The T1/2 was 1.6 ± 0.5 h.

And the Tmax [1, 4]?
Its Tmax is 3.2 ± 1.8 h.

What about the “AUC (0-infinity)” value [1, 5] of the same molecule?
The value was 4169 ± 1548 ng·h/mL.

And the Cmax [1, 5]?
Its Cmax is 849 ± 479 ng/mL.

What about the T1/2 [1, 5] of the same molecule?
The T1/2 was 2.0 ± 0.8 h.

And the Tmax [1, 5]?
The Tmax was 2.0 ± 1.0 h.

Which “MTD, bortezomib” value ([2]; IV days 1, 4, 8, 11 of 21-day cycle, with vorinostat 400 mg) does the source give for `CC(C)C[C@H](NC(=O)[C@H](Cc1ccccc1)NC(=O)c1cnccn1)B(O)O` [bortezomib] here?
The value was 1.3 mg/m^2.

Which “MTD, vorinostat” value ([2]; orally daily days 1-14 of 21-day cycle, with bortezomib) does the source give for `O=C(CCCCCCC(=O)Nc1ccccc1)NO` [vorinostat, suberoylanilide hydroxamic acid] here?
Its value is 400 mg.

What about the “AUC and Cmax in individuals experiencing a DLT compared with no DLT” value ([1]; all days of treatment, p < 0.05) of the same molecule?
Its value is “significantly higher”.

What about the “AUC and Cmax on day 12 compared with day 1” value ([1]; cycle 1, steady state vs single dose, p < 0.05) of the same molecule?
Its value is “significantly higher”.

And the “day 1 compared with day 2 plasma concentrations (influence of bortezomib)” value ([1]; cycle 1, vorinostat alone vs vorinostat + bortezomib)?
Its value is “no difference”.

What about the Cmax ([1]; human, oral, 400 mg, Cmax, C1D1, patients with DLT (3)) of the same molecule?
Its Cmax is 551 ± 174 ng/mL.

And the AUC ([1]; human, oral, 400 mg, C1D1, patients with DLT (3))?
The AUC was 1450 ± 277 ng·h/mL.

And the AUC ([1]; human, oral, 400 mg, C1D1, patients with No DLT (16))?
The AUC was 999 ± 438 ng·h/mL.

What about the Cmax ([1]; human, oral, Cmax, C1D2, patients with DLT (3)) of the same molecule?
Its Cmax is 675 ± 363 ng/mL.

And the Cmax ([1]; human, oral, Cmax, C1D12, patient with DLT (1))?
The Cmax was 905 ng/mL.

And the Cmax ([1]; human, oral, Cmax, C1D12, patients with No DLT (13))?
The Cmax was 448 ± 314 ng/mL.

And the AUC ([1]; human, oral, C1D2, patients with DLT (3))?
The AUC was 1790 ± 436 ng·h/mL.

What about the AUC ([1]; human, oral, C1D2, patients with No DLT (16)) of the same molecule?
The AUC was 983 ± 418 ng·h/mL.

And the AUC ([1]; human, oral, C1D12, patient with DLT (1))?
The AUC was 2230 ng·h/mL.

And the AUC ([1]; human, oral, C1D12, patients with No DLT (13))?
The AUC was 1410 ± 962 ng·h/mL.

And the Cl/F [1, 3]?
Its Cl/F is 6.4 ± 3.2 L/min.

And the Cl/F [1, 4]?
The Cl/F was 11 ± 4.1 L/min.

And the Cl/F [1, 5]?
The Cl/F was 13 ± 3.3 L/min.

And the objective antitumor activity (refractory NSCLC)?
The objective antitumor activity was “no objective antitumor activity”.
